Measured values from paper PMC7316994, “In Vitro Pharmacological Profile of a New Small Molecule Bradykinin B2 Receptor Antagonist” (Frontiers in Pharmacology, 2020).
Read-outs that look alike come from different tables or passages of the source.

Tests used:
[1] = system: Glutamate, NMDA, phencyclidine; assay: radioligand binding (Table S2); conditions: [3H] TCP, Wistar rat cerebral cortex
Muscarinic M4 = Muscarinic M4 (Homo sapiens, UniProt P08173); assay: radioligand binding (Table S2); conditions: read-out: % Inhibition @ 10 µM
Muscarinic M4, sequence (P08173 whole entry): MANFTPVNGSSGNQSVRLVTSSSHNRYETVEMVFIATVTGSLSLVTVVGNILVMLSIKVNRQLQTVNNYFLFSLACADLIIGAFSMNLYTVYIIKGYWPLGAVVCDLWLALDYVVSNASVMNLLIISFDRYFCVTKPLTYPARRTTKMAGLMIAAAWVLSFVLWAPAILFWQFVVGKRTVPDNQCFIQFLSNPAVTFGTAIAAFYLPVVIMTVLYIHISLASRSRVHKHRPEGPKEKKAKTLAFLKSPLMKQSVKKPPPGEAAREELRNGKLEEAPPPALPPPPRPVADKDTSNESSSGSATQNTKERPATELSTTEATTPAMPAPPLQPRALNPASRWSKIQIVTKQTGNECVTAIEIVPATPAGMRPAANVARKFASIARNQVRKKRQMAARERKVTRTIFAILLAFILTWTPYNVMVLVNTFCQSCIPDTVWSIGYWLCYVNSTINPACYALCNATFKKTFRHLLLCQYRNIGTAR

[2] = system: Gamma-aminobutyric acid GABAA, muscimol, central; assay: radioligand binding (Table S2); conditions: [3H] Muscimol, Wistar rat brain (minus cerebellum)
Serotonin 5-HT4 e = target: T1, Serotonin 5-HT4 e (Homo sapiens, UniProt Q13639); assay: radioligand binding (Table S2); conditions: [3H] GR 113808, Human recombinant CHO cells
T1 construct: host or cells: CHO cells
T1 sequence (Q13639 1-378 isoform Q13639-5): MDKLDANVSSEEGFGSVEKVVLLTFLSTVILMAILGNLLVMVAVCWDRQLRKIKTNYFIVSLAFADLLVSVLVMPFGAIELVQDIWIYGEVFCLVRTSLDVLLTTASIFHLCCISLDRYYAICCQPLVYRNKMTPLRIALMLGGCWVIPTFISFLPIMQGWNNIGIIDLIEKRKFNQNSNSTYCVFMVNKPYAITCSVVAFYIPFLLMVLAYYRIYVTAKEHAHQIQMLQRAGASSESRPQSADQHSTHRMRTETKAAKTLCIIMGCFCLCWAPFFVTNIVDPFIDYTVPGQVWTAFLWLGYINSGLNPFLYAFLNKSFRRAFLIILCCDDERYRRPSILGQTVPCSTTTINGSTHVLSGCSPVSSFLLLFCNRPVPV

Potassium channel KATP = assay: radioligand binding (Table S2); conditions: [3H] Glibenclamide, Rat cerebral cortex
Serotonin 5-HT6 = target: T2, Serotonin 5-HT6 (Homo sapiens, UniProt P50406); assay: radioligand binding (Table S2); conditions: [3H] LSD, Human recombinant CHO cells
T2 construct: host or cells: CHO cells
T2 sequence (P50406 whole entry): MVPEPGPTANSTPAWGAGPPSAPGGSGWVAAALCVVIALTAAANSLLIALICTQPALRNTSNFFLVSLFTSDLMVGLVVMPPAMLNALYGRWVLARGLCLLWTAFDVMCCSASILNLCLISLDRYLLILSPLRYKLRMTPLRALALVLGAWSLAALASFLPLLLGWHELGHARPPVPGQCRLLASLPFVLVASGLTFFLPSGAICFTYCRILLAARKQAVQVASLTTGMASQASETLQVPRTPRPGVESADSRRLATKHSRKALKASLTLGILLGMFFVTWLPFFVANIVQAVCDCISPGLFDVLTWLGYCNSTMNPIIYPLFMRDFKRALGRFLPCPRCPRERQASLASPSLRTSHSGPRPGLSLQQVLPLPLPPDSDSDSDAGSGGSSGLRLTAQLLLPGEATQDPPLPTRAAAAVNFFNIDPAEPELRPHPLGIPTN

[3] = target: T3, Cysteinyl leukotriene receptor CysLT2 (Homo sapiens, UniProt Q9NS75); assay: radioligand binding (Table S2); conditions: [3H] LTD4, Human recombinant HEK-293 cells
T3 construct: host or cells: HEK-293 cells

Serotonin 5-HT3 = target: T4, Serotonin 5-HT3 (Homo sapiens, UniProt P46098); assay: radioligand binding (Table S2); conditions: [3H] BRL 43694, Human recombinant CHO cells
T4 construct: host or cells: CHO cells

B2 receptor = target: T5, B2 receptor (Homo sapiens, UniProt P30411); assay: Ca^2+ mobilization assay, transfected CHO cells; format: cell-based; parameters: host or cells: CHO cells; conditions: inhibition of response to 0.03 nM BK
T5 sequence (P30411 1-391): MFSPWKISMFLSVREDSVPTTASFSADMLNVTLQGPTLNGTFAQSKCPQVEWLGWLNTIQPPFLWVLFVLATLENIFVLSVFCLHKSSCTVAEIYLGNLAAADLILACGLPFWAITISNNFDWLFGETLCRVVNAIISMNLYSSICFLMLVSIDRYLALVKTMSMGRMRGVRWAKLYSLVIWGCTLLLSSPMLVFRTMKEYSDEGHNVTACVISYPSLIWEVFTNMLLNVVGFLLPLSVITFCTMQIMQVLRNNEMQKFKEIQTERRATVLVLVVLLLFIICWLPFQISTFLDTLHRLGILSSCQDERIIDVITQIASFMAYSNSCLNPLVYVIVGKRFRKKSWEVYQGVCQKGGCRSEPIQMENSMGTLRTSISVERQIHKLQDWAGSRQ

[4] = system: Glutamate ionotropic, AMPA; assay: radioligand binding (Table S2); conditions: [3H] AMPA, Rat cerebral cortex
Neurokinin NK2 = target: T6, Neurokinin NK2 (Homo sapiens, UniProt P21452); assay: radioligand binding (Table S2); conditions: [125I] NKA, Human recombinant CHO cells
T6 construct: host or cells: CHO cells
T6 sequence (P21452 1-398): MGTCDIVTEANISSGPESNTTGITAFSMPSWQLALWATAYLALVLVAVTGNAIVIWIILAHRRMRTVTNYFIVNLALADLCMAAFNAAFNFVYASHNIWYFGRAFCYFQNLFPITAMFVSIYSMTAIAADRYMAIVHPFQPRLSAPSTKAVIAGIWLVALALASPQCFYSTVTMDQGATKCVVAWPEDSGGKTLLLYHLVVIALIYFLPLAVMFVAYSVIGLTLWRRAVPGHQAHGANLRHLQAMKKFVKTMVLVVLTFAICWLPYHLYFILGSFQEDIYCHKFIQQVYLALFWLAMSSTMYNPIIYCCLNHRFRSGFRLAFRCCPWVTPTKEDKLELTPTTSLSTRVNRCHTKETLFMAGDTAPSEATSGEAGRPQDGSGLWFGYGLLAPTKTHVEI

Bombesin BB1 = target: T7, Bombesin BB1 (Homo sapiens, UniProt P28336); assay: radioligand binding (Table S2); conditions: [125I] [Tyr4]-bombesin, Human recombinant CHO cells
T7 construct: host or cells: CHO cells

Urotensin UT = target: T8, Urotensin UT (Homo sapiens, UniProt Q9UKP6); assay: radioligand binding (Table S2); conditions: [125I] Urotensin-II, Human recombinant CHO cells
T8 construct: host or cells: CHO cells

Somatostatin sst2 = Somatostatin sst2 (Homo sapiens, UniProt P30874); assay: radioligand binding (Table S2); conditions: [125I] Tyr11-Somatostatin 14, Human recombinant CHO-K1 cells
Somatostatin sst2, sequence (P30874 whole entry): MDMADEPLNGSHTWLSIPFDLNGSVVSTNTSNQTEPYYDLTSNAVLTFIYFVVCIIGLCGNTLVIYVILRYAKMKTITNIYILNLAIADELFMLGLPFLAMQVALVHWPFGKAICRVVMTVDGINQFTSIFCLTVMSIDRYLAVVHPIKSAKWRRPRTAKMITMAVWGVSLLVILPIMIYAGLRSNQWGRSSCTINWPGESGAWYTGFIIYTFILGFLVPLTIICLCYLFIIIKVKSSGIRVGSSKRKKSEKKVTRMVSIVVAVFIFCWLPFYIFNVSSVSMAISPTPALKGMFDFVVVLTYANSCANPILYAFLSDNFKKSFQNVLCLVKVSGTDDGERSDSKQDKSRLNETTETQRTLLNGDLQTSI

Adenosine A1 = Adenosine A1 (Homo sapiens, UniProt P30542); assay: radioligand binding (Table S2); conditions: [3H] DPCPX, Human recombinant CHO cells
Adenosine A1, sequence (P30542 whole entry): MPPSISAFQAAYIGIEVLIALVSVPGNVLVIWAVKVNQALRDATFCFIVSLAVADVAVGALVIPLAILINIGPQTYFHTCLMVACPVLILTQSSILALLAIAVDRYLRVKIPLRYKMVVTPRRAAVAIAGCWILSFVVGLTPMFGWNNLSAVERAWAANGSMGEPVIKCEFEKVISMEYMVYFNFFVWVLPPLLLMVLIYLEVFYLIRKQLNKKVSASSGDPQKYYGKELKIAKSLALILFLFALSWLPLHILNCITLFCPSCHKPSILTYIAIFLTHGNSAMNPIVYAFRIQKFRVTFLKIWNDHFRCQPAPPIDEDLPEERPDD

Opioid δ (DOP) = target: T9, Opioid δ (DOP) (Homo sapiens, UniProt P41143); assay: radioligand binding (Table S2); conditions: [3H] DADLE, Human recombinant CHO cells
T9 construct: host or cells: CHO cells

Melatonin MT1 (ML1A) = target: T10, Melatonin MT1 (ML1A) (Homo sapiens, UniProt P48039); assay: radioligand binding (Table S2); conditions: [125I] 2-iodomelatonin, Human recombinant CHO cells
T10 construct: host or cells: CHO cells
T10 sequence (P48039 whole entry): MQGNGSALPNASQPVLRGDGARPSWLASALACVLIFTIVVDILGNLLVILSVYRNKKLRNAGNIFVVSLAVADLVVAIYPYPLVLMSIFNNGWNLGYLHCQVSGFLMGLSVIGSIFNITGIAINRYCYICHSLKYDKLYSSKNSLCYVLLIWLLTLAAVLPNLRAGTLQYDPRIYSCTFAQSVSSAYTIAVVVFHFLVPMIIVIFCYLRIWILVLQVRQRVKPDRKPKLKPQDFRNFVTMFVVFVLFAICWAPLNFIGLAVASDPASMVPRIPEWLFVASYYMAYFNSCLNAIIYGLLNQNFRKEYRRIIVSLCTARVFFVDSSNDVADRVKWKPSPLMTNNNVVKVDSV

COX1 = target: T11, COX1 (Homo sapiens, UniProt P23219); assay: enzyme assay (Table S2); format: biochemical; conditions: Arachidonic acid (3 µM) + ADHP, Fluorimetry
T11 construct: Eurofins (assay provider)
T11 sequence (P23219 24-599): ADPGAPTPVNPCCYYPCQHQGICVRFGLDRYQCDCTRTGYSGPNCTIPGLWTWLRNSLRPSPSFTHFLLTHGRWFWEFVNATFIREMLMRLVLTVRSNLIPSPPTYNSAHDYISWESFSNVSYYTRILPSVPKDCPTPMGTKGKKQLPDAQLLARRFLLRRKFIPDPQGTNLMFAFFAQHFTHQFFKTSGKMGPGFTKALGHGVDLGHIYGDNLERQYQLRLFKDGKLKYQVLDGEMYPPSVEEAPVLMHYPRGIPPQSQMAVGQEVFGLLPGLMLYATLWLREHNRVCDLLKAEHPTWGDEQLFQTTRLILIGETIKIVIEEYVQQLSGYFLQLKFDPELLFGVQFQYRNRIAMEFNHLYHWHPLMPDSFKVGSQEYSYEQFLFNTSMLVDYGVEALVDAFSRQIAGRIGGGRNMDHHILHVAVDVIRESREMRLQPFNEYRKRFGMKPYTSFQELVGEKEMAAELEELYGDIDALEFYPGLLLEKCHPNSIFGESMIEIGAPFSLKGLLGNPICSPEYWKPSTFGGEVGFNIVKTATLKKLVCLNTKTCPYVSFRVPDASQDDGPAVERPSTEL

Endothelin ETB = target: T12, Endothelin ETB (Homo sapiens, UniProt P24530); assay: radioligand binding (Table S2); conditions: [125I] Endothelin-1, Human recombinant CHO cells
T12 construct: host or cells: CHO cells

[5] = system: Muscarinic, oxotremorine M; assay: radioligand binding (Table S2); conditions: [3H] Oxotremorine M, Wistar rat cerebral cortex
Angiotensine AT1 = Angiotensine AT1 (Homo sapiens, UniProt P30556); assay: radioligand binding (Table S2); conditions: read-out: % Inhibition @ 10 µM
Angiotensine AT1, sequence (P30556 whole entry): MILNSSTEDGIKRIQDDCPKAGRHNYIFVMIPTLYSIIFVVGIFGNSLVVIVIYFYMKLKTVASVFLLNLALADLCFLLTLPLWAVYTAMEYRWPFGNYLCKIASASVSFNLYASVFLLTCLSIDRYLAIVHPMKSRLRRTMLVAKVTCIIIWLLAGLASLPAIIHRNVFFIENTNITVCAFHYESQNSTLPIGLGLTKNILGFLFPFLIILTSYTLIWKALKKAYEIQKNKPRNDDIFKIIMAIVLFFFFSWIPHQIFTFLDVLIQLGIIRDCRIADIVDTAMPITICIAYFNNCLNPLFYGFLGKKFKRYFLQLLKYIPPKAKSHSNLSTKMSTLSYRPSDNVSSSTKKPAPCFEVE

Serotonin 5-HT1A = target: T13, Serotonin 5-HT1A (Homo sapiens, UniProt P08908); assay: radioligand binding (Table S2); conditions: [3H] 8-OH-DPAT, Human recombinant HEK-293 cells
T13 construct: host or cells: HEK-293 cells
T13 sequence (P08908 whole entry): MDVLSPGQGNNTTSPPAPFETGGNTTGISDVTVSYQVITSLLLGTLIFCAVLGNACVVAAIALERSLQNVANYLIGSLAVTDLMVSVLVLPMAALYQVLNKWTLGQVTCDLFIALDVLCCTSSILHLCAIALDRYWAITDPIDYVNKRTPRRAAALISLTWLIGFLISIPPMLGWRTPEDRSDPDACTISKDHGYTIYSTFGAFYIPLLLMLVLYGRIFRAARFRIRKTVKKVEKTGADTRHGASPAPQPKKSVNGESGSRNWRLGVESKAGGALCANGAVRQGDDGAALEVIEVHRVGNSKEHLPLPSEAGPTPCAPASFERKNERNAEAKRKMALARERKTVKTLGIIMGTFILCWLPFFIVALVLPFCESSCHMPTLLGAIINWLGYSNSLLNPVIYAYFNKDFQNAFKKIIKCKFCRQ

Bradykinin B1 = target: T14, Bradykinin B1 (Homo sapiens, UniProt P46663); assay: radioligand binding (Table S2)
T14 construct: host or cells: CHO cells

Galanin GAL2 = target: T15, Galanin GAL2 (Homo sapiens, UniProt O43603); assay: radioligand binding (Table S2); conditions: [125I] Galanin, Human recombinant CHO cells
T15 construct: host or cells: CHO cells
T15 sequence (O43603 whole entry): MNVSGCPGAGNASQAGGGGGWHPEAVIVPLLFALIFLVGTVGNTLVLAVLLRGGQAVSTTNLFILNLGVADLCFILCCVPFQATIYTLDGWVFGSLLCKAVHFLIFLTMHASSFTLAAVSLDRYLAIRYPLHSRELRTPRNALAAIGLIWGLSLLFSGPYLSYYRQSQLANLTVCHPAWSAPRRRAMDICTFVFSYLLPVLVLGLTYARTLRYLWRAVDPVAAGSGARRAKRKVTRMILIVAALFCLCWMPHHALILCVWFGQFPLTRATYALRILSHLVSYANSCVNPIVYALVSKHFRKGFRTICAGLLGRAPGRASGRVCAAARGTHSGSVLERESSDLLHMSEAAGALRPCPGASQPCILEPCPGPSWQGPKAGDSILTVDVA

[6] = target: Calcitonin gene related peptide CGRP (Homo sapiens, UniProt O60894+Q16602); assay: radioligand binding (Table S2); conditions: [125I] hCGRPα, Human recombinant CHO cells
Calcitonin gene related peptide CGRP, sequence (Q16602 23-461): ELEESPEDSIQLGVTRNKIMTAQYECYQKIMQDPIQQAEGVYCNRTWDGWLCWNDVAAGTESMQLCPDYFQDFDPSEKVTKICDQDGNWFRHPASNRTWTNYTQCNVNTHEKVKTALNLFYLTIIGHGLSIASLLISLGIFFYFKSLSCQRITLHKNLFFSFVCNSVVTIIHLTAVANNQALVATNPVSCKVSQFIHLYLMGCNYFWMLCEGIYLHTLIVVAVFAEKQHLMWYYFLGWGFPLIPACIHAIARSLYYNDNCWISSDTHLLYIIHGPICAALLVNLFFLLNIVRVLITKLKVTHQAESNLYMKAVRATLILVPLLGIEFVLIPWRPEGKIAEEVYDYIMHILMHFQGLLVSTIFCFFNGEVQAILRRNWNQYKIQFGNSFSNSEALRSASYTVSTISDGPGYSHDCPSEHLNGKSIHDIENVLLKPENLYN
Calcitonin gene related peptide CGRP, sequence (O60894 27-148 partner): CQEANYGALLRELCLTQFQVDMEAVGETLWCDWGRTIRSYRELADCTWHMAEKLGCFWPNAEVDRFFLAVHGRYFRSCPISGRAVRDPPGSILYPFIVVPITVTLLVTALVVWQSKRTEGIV

## Cc1cc(-c2ncnn2C)c2cccc(OCc3c(Cl)cc(F)cc3[C@H](C)NC(=O)COC(F)F)c2n1 [Compound 3, (S)-N-(1-(3-chloro-5-fluoro-2-((2-methyl-4-(1-methyl-1H-1,2,4-triazol-5-yl)quinolin-8-yloxy)methyl)phenyl)ethyl)-2-(difluoromethoxy)acetamide]
[1]
  % Inhibition @ 10 µM: -2%
Muscarinic M4
  inhibition at 10 µM: -1.3%
[2]
  % Inhibition @ 10 µM: 12%
Serotonin 5-HT4 e
  inhibition at 10 µM: -0.9%
Potassium channel KATP
  % Inhibition @ 10 µM: 2.3%
Serotonin 5-HT6
  inhibition at 10 µM: -4.5%
[3]
  inhibition at 10 µM: -6%
Serotonin 5-HT3
  inhibition at 10 µM: 2.1%
B2 receptor; arithmetic mean, read-out: IC50 (nM) Mean
  IC50: 2.13 nM
B2 receptor; arithmetic mean, read-out: Kb (nM) Mean
  Kb: 0.24 nM
B2 receptor; geometric mean, read-out: IC50 (nM) Geometric mean
  IC50: 2.13 nM
B2 receptor; geometric mean, read-out: Kb (nM) Geometric mean
  Kb: 0.24 nM
[4]
  % Inhibition @ 10 µM: 3.0%
Neurokinin NK2
  % Inhibition @ 10 µM: 21%
  inhibition at 10 µM: 21.2%
Bombesin BB1
  inhibition at 10 µM: 6.7%
Urotensin UT
  inhibition at 10 µM: 13.5%
Somatostatin sst2
  inhibition at 10 µM: -7%
Adenosine A1
  inhibition at 10 µM: 12.4%
Opioid δ (DOP)
  inhibition at 10 µM: 10.6%
Melatonin MT1 (ML1A)
  inhibition at 10 µM: 15.3%
COX1
  inhibition at 10 µM: -9.3%
Endothelin ETB
  inhibition at 10 µM: 7.2%
[5]
  % Inhibition @ 10 µM: 18%
Angiotensine AT1
  inhibition at 10 µM: -4.1%
Serotonin 5-HT1A
  inhibition at 10 µM: -4%
Bradykinin B1
  inhibition at 10 µM: 0.5%
Galanin GAL2
  inhibition at 10 µM: 6.2%
[6]
  inhibition at 10 µM: -26.1%
